We go through 2 molecules from ChEMBL document CHEMBL2062454, “SAR studies around a series of triazolopyridines as potent and selective PI3Kγ inhibitors” (Bioorg Med Chem Lett, 2012).

Structures are written as SMILES. In brackets after ≈: the same amount, converted by molar mass.

In series [1] the test system is Salmonella typhimurium. In words: Mutagenic activity in Salmonella typhimurium TA1537 at 1667 ug/plate in presence of liver S9 fraction. It is filed as toxicity, organism-based. The following applies: salmonella enterica subsp. enterica serovar typhimurium.
Series [2] has as its system Salmonella typhimurium. As to the kind of experiment: Mutagenic activity in Salmonella typhimurium TA98 at 1667 ug/plate in absence of liver S9 fraction. The settings on record: salmonella enterica subsp. enterica serovar typhimurium. It is filed as toxicity, organism-based.
Another series concerns the target Cytochrome P450 3A4 (Homo sapiens, UniProt P08684). In words: Inhibition of CYP3A4 up to 25 uM. It is filed as ADME.
Series [3] relates to Salmonella typhimurium. In words: Mutagenic activity in Salmonella typhimurium TA100 at 1667 ug/plate in absence of liver S9 fraction. It is filed as toxicity, organism-based. The following applies: salmonella enterica subsp. enterica serovar typhimurium.
The subject of series [4] is Salmonella typhimurium. In words: Mutagenic activity in Salmonella typhimurium TA1537 at 1667 ug/plate in absence of liver S9 fraction. The following applies: salmonella enterica subsp. enterica serovar typhimurium. It is filed as toxicity, organism-based.
Series [5] is filed under the species Homo sapiens. As to the kind of experiment: Selectivity ratio of IC50 for PI3Kbeta to IC50 for PI3Kgamma.
Series [6] addresses Phosphatidylinositol 4,5-bisphosphate 3-kinase catalytic subunit beta isoform (Homo sapiens, UniProt P42338). In words: Inhibition of PI3Kbeta by high throughput chemoproteomics binding assay.
In another series the test system is Caco-2. As to the kind of experiment: Permeability of the compound in human Caco2 cells. The format is ADME, cell-based. (Caco-2 monolayers are a common model of the intestinal barrier.)
The species entered for series [7] is Homo sapiens. As to the kind of experiment: Selectivity ratio of IC50 for PI3Kdelta to IC50 for PI3Kgamma.
A further series has as its target Cytochrome P450 2C9 (Homo sapiens, UniProt P11712). As to the kind of experiment: Inhibition of CYP2C9 up to 25 uM. The format is ADME.
The nature of series [8]: Thermodynamic solubility of the compound. It is filed as physicochemical. The settings on record: read-out: Therm_solubility.
Series [9] can be described thus: Clearance in rat at 0.2 mg/kg, iv and 10 mg/kg, po. The format is ADME, organism-based. The settings on record: in vivo.
The next series relates to Mus musculus. As to the kind of experiment: Antiarthritic activity in DBA/B10 mouse collagen-induced arthritis model assessed as reduction of clinical score at 10 mg/kg, po administered twice per day for every 12 hrs. The format is functional. Set-up: scale not given: the % may be the effect or the level left.
Another series concerns the target Cytochrome P450 2D6 (Homo sapiens, UniProt P10635). As to the kind of experiment: Inhibition of CYP2D6 up to 25 uM. The format is ADME.
Series [10] is described as follows: Oral bioavailability in rat at 10 mg/kg. It is filed as ADME, organism-based. The settings on record: in vivo.
In series [11] the test system is Salmonella typhimurium. As to the kind of experiment: Mutagenic activity in Salmonella typhimurium TA98 at 1667 ug/plate in presence of liver S9 fraction. It is filed as toxicity, organism-based. The settings on record: salmonella enterica subsp. enterica serovar typhimurium.
Series [12] has as its target Voltage-gated inwardly rectifying potassium channel KCNH2 (Homo sapiens, UniProt Q12809). In words: Inhibition of human ERG up to 100 uM by Q-patch assay.
In a further series the target is T1, Cytochrome P450 1A (Homo sapiens, UniProt P04798+P05177).
T1 sequence (P04798 whole entry): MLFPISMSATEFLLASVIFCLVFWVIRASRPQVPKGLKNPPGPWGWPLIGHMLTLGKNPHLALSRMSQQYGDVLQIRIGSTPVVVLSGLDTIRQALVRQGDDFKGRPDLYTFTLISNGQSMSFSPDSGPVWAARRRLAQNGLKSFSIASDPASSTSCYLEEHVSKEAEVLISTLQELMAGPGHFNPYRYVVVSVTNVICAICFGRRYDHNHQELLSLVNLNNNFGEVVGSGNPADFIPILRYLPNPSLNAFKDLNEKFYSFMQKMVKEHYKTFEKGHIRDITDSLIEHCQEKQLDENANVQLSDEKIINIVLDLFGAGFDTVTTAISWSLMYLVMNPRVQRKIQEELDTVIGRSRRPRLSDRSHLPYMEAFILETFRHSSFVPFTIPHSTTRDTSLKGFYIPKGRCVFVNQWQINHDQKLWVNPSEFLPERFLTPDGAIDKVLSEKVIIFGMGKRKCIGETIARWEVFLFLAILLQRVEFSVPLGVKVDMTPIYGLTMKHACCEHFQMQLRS
T1 sequence (P05177 whole entry): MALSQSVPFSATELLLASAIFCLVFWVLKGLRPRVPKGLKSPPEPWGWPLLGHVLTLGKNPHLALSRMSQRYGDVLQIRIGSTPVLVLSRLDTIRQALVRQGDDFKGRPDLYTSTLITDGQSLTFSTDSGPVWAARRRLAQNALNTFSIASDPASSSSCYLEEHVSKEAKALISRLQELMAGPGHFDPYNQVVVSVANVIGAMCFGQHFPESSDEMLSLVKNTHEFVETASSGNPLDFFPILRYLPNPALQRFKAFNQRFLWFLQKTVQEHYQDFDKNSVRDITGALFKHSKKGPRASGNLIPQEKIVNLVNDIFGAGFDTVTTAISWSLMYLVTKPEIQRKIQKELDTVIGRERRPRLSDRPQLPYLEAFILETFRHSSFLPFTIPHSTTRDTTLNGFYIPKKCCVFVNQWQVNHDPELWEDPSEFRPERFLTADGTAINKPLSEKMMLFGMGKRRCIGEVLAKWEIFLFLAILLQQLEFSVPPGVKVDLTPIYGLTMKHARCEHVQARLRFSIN
In words: Inhibition of CYP1A up to 25 uM. It is filed as ADME.

For series [13], the target named is Phosphatidylinositol 4,5-bisphosphate 3-kinase catalytic subunit alpha isoform (Homo sapiens, UniProt P42336). As to the kind of experiment: Inhibition of PI3Kalpha by high throughput chemoproteomics binding assay.
The next series has as its target Cytochrome P450 2C19 (Homo sapiens, UniProt P33261). In words: Inhibition of CYP2C19 up to 25 uM. It is filed as ADME.
Series [14] deals with Salmonella typhimurium. As to the kind of experiment: Mutagenic activity in Salmonella typhimurium TA100 at 1667 ug/plate in presence of liver S9 fraction. The format is toxicity, organism-based. The settings on record: salmonella enterica subsp. enterica serovar typhimurium.
Series [15] in a line: Half life in mouse microsomes. The format is ADME, Microsome.
Series [16] concerns the target Phosphatidylinositol 4,5-bisphosphate 3-kinase catalytic subunit gamma isoform (Homo sapiens, UniProt P48736). As to the kind of experiment: Inhibition of PI3Kgamma assessed as inhibition of C5a-induced AKT phosphorylation at Ser473 by cell based assay.
The nature of series [17]: Clearance in rat at 1 mg/kg, iv and 5 mg/kg, po. The format is ADME, organism-based. The following applies: in vivo.
Series [18] in a line: Half life in rat microsomes. The format is ADME, Microsome.
The nature of series [19]: Half life in human microsomes. The format is ADME, Microsome.
Series [20] is described as follows: Oral bioavailability in rat at 5 mg/kg. The format is ADME, organism-based. The following applies: in vivo.

Voltage-gated inwardly rectifying potassium channel KCNH2, sequence (Q12809 whole entry): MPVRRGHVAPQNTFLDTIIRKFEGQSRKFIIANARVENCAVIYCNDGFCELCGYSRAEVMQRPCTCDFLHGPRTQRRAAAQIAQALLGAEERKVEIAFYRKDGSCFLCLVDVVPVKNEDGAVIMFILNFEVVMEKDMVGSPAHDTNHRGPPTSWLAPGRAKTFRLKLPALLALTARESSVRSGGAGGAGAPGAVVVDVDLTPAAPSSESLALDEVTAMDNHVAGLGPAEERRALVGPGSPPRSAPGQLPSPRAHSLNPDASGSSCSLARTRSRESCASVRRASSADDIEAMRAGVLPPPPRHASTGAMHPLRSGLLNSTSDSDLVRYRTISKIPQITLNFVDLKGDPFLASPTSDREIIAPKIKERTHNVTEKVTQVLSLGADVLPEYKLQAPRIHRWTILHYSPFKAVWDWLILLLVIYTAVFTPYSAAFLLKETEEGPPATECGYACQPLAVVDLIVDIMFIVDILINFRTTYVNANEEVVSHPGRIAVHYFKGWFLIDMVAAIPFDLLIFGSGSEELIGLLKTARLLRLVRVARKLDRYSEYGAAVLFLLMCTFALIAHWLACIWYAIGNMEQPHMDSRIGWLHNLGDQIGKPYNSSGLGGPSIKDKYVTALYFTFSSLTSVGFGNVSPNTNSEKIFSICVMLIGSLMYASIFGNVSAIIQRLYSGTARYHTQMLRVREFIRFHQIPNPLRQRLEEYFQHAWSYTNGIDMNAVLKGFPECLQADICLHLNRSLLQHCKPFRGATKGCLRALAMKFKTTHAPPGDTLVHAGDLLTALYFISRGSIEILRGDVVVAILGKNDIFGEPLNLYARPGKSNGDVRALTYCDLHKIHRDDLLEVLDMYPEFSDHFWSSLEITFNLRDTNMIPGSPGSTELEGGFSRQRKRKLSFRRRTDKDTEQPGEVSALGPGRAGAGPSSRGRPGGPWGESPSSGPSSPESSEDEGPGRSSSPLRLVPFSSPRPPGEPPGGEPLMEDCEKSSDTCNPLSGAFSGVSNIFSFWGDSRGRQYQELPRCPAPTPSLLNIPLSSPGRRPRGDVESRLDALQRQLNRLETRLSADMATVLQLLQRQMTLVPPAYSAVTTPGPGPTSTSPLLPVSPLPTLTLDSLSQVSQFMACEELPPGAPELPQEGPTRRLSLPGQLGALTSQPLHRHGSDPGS
Cytochrome P450 2C19, sequence (P33261 whole entry): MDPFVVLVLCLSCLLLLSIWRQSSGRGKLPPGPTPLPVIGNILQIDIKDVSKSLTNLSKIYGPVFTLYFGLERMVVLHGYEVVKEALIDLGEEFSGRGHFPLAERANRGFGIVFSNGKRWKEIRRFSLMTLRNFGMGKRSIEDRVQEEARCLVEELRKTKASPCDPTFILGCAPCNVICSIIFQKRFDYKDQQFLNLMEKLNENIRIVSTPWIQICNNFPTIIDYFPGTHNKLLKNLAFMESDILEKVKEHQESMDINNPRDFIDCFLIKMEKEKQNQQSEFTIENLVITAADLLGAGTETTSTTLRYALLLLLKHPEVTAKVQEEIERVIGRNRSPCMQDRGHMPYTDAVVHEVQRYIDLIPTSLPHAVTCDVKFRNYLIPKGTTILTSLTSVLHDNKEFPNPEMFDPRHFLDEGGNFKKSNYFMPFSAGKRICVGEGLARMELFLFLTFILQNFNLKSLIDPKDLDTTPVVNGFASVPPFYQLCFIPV
Cytochrome P450 2D6, sequence (P10635 whole entry): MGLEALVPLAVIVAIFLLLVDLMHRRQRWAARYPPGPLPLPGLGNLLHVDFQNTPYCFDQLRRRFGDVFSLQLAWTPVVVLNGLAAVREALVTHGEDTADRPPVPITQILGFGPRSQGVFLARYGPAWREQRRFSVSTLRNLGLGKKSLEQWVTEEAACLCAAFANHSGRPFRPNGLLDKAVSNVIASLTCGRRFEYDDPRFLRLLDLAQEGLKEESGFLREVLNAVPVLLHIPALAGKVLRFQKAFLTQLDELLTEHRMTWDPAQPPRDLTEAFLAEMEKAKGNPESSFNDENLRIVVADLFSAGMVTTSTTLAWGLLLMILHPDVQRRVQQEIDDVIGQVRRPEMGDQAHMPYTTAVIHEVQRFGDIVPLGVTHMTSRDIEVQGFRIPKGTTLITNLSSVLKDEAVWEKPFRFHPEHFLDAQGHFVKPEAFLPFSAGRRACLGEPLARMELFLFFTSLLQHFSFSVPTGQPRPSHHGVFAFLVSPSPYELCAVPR
Cytochrome P450 3A4, sequence (P08684 whole entry): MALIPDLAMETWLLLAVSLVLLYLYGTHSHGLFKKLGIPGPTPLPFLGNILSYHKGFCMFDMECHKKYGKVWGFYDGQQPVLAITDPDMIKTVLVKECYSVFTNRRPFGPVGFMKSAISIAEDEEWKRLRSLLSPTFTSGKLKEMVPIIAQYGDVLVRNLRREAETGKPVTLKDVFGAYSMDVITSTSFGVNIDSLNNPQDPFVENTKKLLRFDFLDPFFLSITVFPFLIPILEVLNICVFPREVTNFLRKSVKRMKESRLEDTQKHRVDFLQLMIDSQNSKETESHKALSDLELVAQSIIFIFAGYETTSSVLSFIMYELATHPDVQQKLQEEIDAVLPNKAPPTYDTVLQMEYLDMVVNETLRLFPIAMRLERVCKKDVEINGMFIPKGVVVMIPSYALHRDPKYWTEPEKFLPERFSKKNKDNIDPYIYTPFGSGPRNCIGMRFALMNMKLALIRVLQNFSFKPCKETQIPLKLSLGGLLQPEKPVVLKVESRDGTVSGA
Cytochrome P450 2C9, sequence (P11712 whole entry): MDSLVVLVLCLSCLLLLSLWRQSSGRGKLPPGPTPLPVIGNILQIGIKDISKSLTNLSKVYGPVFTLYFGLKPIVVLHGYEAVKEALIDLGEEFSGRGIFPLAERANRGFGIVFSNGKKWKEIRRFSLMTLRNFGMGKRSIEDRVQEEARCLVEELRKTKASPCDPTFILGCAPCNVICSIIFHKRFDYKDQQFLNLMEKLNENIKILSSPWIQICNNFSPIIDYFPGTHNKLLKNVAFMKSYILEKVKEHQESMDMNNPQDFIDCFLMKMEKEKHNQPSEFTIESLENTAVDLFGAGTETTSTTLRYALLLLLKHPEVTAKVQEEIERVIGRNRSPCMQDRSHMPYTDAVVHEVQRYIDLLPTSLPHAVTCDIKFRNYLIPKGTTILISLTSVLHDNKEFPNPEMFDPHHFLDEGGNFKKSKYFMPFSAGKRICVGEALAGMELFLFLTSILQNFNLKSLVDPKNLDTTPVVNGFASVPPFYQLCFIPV
Phosphatidylinositol 4,5-bisphosphate 3-kinase catalytic subunit beta isoform, sequence (P42338 whole entry, canonical isoform): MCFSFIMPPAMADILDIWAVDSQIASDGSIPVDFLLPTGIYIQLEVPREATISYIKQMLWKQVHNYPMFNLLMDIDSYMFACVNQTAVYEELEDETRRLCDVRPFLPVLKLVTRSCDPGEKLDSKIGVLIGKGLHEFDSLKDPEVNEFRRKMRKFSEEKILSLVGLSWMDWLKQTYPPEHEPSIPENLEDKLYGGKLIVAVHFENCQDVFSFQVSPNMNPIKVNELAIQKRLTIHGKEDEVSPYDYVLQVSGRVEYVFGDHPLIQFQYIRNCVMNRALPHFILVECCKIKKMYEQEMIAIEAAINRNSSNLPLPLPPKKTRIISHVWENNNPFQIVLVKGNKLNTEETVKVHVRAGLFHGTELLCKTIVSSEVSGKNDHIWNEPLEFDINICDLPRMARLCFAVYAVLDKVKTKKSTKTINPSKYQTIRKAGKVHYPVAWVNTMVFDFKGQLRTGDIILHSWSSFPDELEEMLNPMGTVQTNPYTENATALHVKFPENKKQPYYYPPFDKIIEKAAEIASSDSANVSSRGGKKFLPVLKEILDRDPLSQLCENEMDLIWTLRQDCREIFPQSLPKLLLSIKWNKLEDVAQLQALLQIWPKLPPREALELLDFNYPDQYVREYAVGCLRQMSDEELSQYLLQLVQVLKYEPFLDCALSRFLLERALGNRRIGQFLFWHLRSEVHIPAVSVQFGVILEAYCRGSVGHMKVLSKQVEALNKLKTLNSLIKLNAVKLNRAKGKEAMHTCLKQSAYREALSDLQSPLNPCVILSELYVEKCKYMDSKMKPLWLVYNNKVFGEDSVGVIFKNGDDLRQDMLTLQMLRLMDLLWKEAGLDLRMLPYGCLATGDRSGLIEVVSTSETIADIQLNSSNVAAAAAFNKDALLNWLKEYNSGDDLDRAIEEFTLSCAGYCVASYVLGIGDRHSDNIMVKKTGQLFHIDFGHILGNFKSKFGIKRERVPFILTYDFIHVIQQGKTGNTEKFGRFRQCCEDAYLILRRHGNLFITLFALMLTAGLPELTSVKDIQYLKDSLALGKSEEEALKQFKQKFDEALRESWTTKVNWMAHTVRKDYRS

Usually IC50 stands for the midpoint of a concentration-inhibition curve. One may read the bioavailability as dose-corrected exposure relative to a reference, in per cent. For the molecule `CC(C)(C)NS(=O)(=O)c1cncc(-c2cc(F)c3nc(N)nn3c2)c1`, the Activity result with Salmonella typhimurium [1] is “Non-toxic”; in the series with Salmonella typhimurium [2] it was “Non-toxic”; in the series on Salmonella typhimurium [3], “Non-toxic”; in the series with Salmonella typhimurium [4] it was “Non-toxic”; in the series on Mus musculus, 38%; in the series with Salmonella typhimurium [11], “Non-toxic”. In the series with Salmonella typhimurium [14], the Activity entry is “Non-toxic”. In addition, the “inhibition (INH)” value (on Cytochrome P450 3A4; at Cytochrome P450 2C9; against Cytochrome P450 2D6; in series [12]; against Cytochrome P450 1A; on Cytochrome P450 2C19) was “Not Active” in each case. The Ratio IC50 in the series filed under Homo sapiens [5] and in the series filed under Homo sapiens [7] was 100 in each case. Besides, the IC50 in series [6] was 1260 nM; in [13], more than 10000 nM. In addition, in the series with Caco-2, the permeability entry is on record as “permeable”. The solubility thermodynamic in [8] was less than 5 µg/mL. In series [9], this molecule registered a clearance of 14 mL/min/kg. Moreover, the bioavailability in [10] is 37%.

As a reminder, the half-life is the time in which the quantity being followed falls by half. Take `CC(C)(C)NS(=O)(=O)c1cncc(-c2ccc3nc(N)nn3c2)c1`: the Activity result is “Non-toxic” in the series with Salmonella typhimurium [1]; “Non-toxic” in the series with Salmonella typhimurium [2]; “Non-toxic” with Salmonella typhimurium [3]; “Non-toxic” with Salmonella typhimurium [4]; 53% with Mus musculus; “Non-toxic” with Salmonella typhimurium [11]. Moreover, the Activity result with Salmonella typhimurium [14] is on record as “Non-toxic”. The “inhibition (INH)” value (against Cytochrome P450 3A4; against Cytochrome P450 2C9; against Cytochrome P450 2D6; in series [12]; against Cytochrome P450 1A; at Cytochrome P450 2C19) was “Not Active” each time. Further, the half-life in [15], in [18] and in series [19] was more than 45 min each time. In the series on Caco-2, the permeability entry is “permeable”. In addition, the half-inhibitory concentration (IC50) in series [16] was 2000 nM. The clearance in [17] is 11.5 mL/min/kg. Further, in series [8], the solubility thermodynamic is 9 µg/mL (≈ 26 µM). For the same molecule, in series [20], the bioavailability was determined as 88%.
